This note sets out measurements from a compilation of properties of binary mixtures (doi:10.1016/j.fluid.2006.05.028).

A short description of the data set: xn = mol fraction of the nth substance listed. The settings on record: 298.15 K, 101.3 kPa.

Take `O` + CCOS(=O)(=O)[O-].CC[n+]1ccn(C)c1: the electrical conductivity (x1 = 1) amounted to 0.0026 S/m.
In the case of `[Br][Al]([Br])[Br]` + CC[n+]1ccccc1.[Br-], the electrical conductivity (x2 = 0.65) is 0.292 S/m.
Turning to `CCOS(=O)(=O)[O-].CC[n+]1ccn(C)c1` + O, the electrical conductivity runs as follows: (x1 = 0.004) 1.35 S/m; (x1 = 0.0084) 2.11 S/m; (x1 = 0.0133) 2.76 S/m; (x2 = 0.4084) 1.3 S/m; (x2 = 0.5931) 2.03 S/m; (x2 = 0.6983) 2.55 S/m. The electrical conductivity is 3.03 S/m (x2 = 0.7663); 3.54 S/m (x2 = 0.8139); 4.14 S/m (x2 = 0.876); 4.31 S/m (x2 = 0.8974); 4.41 S/m (x2 = 0.9148); 4.43 S/m (x2 = 0.9413). The molecule further displayed an electrical conductivity (x2 = 0.9516) of 4.33 S/m and an electrical conductivity (x2 = 0.9606) of 4.16 S/m.
